In patent US20020137929A1, “1 - (3-heterocyclylphenyl) isothiourea, -isourea, -guanidine and -amidine herbicidal agents” (Intellectual Property Department, BASF Aktiengesellschaft, priority 1998, published 2002):

What was measured:
MOOVA (Monochoria) = experiment: Preemergence weed control under flooded paddy conditions; assay type: in vivo, Monochoria vaginalis; conditions: rated 3-4 weeks after treatment
Summary of the method: (§1)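 Greenhouse paddy assay. Acetone/water (50/50 v/v) solutions dosed into flood water, equivalent to about 0.0313 to 0.500 kg/ha active ingredient, over seeds planted 0.5 cm deep in silt loam. Score: 0-9 visual, based on stand, vigor, malformation, size and chlorosis, 3 to 4 weeks after treatment.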

[1] = tested on: CHEAL (Lambsquarters, Common); experiment: Postemergence herbicidal evaluation; assay type: in vivo, Chenopodium album; conditions: postemergence
Summary of the method: (§2)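 Herbicidal effect was judged by eye on a 0–9 scale covering stand, vigor, deformity, size and chlorosis, compared with controls, four to five weeks after seedlings about two weeks old were sprayed (40 psi, ~0.0156–0.500 kg/ha).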

GALAP (Galium) = experiment: Postemergence herbicidal evaluation; assay type: in vivo, Galium aparine; conditions: postemergence
Summary of the method: as §2

CYPSE (Flatsedge) = experiment: Preemergence weed control under flooded paddy conditions; assay type: in vivo, Cyperus serotinus; conditions: rated 3-4 weeks after treatment
Summary of the method: as §1

ZEAMX (Corn, Field) = experiment: Postemergence herbicidal evaluation; assay type: in vivo, Zea mays; conditions: postemergence
Summary of the method: as §2

ORYSAT (Rice, Tebonnet) [2] = experiment: Preemergence herbicidal evaluation; assay type: in vivo, Oryza sativa, (L.) Tebonnet; conditions: rated 4-5 weeks after treatment; for ORYSAT rating: preemergence, 0-9 scale
Summary of the method: (§3)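 Steps: mix seeds into potting soil; plant atop ~1 inch soil; spray compound in aqueous acetone (~0.0156-0.500 kg/ha equivalent); maintain in greenhouse with watering; rate visually 0-9 versus control at 4-5 weeks.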

ORYSAT (Rice, Tebonnet) [3] = experiment: Postemergence herbicidal evaluation; assay type: in vivo, Oryza sativa, (L.) Tebonnet; conditions: postemergence
Summary of the method: as §2

AMBEL (Ragweed, Common) = experiment: Preemergence herbicidal evaluation; assay type: in vivo, Ambrosia artemisifolia; conditions: rated 4-5 weeks after treatment; for AMBEL rating: preemergence, 0-9 scale
Summary of the method: as §3

CASOB (Sicklepod) = experiment: Postemergence herbicidal evaluation; assay type: in vivo, Cassia obtusifolia; conditions: postemergence
Summary of the method: as §2

[4] = tested on: GLXMAW (Soybean, Williams); experiment: Preemergence herbicidal evaluation; assay type: in vivo, Glycine max, (L.) Merr. cv Williams; conditions: rated 4-5 weeks after treatment; for GLXMAW rating: preemergence, 0-9 scale
From the text: Results of herbicide evaluation are expressed on a rating scale (0-9). The scale is based upon a visual observation of plant stand, vigor, malformation, size, chlorosis and overall plant appearance as compared with a control.
The preemergence herbicidal activity of the test compounds of the present invention is exemplified by the following tests in which the seeds of a variety of monocotyledonous and dicotyledonous plants are separately mixed with potting soil and planted on top of approximately one inch of soil in separate pint cups. After planting, the cups are sprayed with the selected aqueous acetone solution containing test compound in sufficient quantity to provide the equivalent of about 0.0156 to 0.500 kg per hectare of test compound per cup. The treated cups are then placed on greenhouse benches, watered and cared for in accordance with conventional greenhouse procedures. From four to five weeks after treatment, the tests are terminated and each cup is examined and rated according to the rating system provided in Example 37.
The compounds evaluated are reported by compound number given in Example 37.

SETVI (Foxtail, Green) = experiment: Preemergence herbicidal evaluation; assay type: in vivo, Setaria viridis; conditions: rated 4-5 weeks after treatment; for SETVI rating: preemergence, 0-9 scale
Summary of the method: as §3

Compound: C=CCOC(=O)CN1C(=O)CSC1=Nc1cc(-n2c(=O)cc(C(F)(F)F)n(C)c2=O)c(F)cc1Cl [Compound 106, Allyl 2-{{2-chloro-5-[3,6-dihydro-3-methyl-2,6-dioxo-4-(trifluoromethyl)-1(2H)-pyrimidinyl]-4-fluorophenyl}imino}-4-oxo-3-thiazolidineacetate]
- MOOVA herbicidal effect rating (MOOVA (Monochoria); 0.0313 kg/ha): 9.0
- MOOVA herbicidal effect rating (MOOVA (Monochoria); 0.0625 kg/ha): 9.0
- MOOVA herbicidal effect rating (MOOVA (Monochoria); 0.1250 kg/ha): 9.0
- MOOVA herbicidal effect rating (MOOVA (Monochoria); 0.2500 kg/ha): 9.0
- herbicidal rating CHEAL ([1]; rate 0.0158 kg/ha): 7.0
- herbicidal rating CHEAL ([1]; rate 0.0315 kg/ha): 7.0
- herbicidal rating CHEAL ([1]; rate 0.0630 kg/ha): 7.0
- herbicidal rating GALAP (GALAP (Galium); rate 0.0158 kg/ha): 1.0
- herbicidal rating GALAP (GALAP (Galium); rate 0.0315 kg/ha): 1.0
- herbicidal rating GALAP (GALAP (Galium); rate 0.0630 kg/ha): 1.0
- CYPSE herbicidal effect rating (CYPSE (Flatsedge); 0.0313 kg/ha): 0.0
- CYPSE herbicidal effect rating (CYPSE (Flatsedge); 0.0625 kg/ha): 0.0
- CYPSE herbicidal effect rating (CYPSE (Flatsedge); 0.1250 kg/ha): 2.0
- CYPSE herbicidal effect rating (CYPSE (Flatsedge); 0.2500 kg/ha): 6.0
- herbicidal rating ZEAMX (ZEAMX (Corn, Field); rate 0.0158 kg/ha): 5.0
- herbicidal rating ZEAMX (ZEAMX (Corn, Field); rate 0.0315 kg/ha): 6.5
- herbicidal rating ZEAMX (ZEAMX (Corn, Field); rate 0.0630 kg/ha): 7.0
- ORYSAT rating (ORYSAT (Rice, Tebonnet) [2]; 0.0313 kg/ha): 1.0
- ORYSAT rating (ORYSAT (Rice, Tebonnet) [2]; 0.0625 kg/ha): 2.0
- ORYSAT rating (ORYSAT (Rice, Tebonnet) [2]; 0.1250 kg/ha): 2.5
- ORYSAT rating (ORYSAT (Rice, Tebonnet) [2]; 0.2500 kg/ha): 5.0
- Preemergence herbicidal rating ORYSAT (ORYSAT (Rice, Tebonnet) [2]; rate 0.0156 kg/ha): 1.5
- herbicidal rating ORYSAT (ORYSAT (Rice, Tebonnet) [3]; rate 0.0158 kg/ha): 2.0
- herbicidal rating ORYSAT (ORYSAT (Rice, Tebonnet) [3]; rate 0.0315 kg/ha): 2.5
- herbicidal rating ORYSAT (ORYSAT (Rice, Tebonnet) [3]; rate 0.0630 kg/ha): 4.0
- AMBEL rating (AMBEL (Ragweed, Common); 0.0313 kg/ha): 1.5
- AMBEL rating (AMBEL (Ragweed, Common); 0.0625 kg/ha): 5.0
- AMBEL rating (AMBEL (Ragweed, Common); 0.1250 kg/ha): 7.0
- AMBEL rating (AMBEL (Ragweed, Common); 0.2500 kg/ha): 9.0
- Preemergence herbicidal rating AMBEL (AMBEL (Ragweed, Common); rate 0.0156 kg/ha): 1.5
- herbicidal rating CASOB (CASOB (Sicklepod); rate 0.0158 kg/ha): 1.0
- herbicidal rating CASOB (CASOB (Sicklepod); rate 0.0315 kg/ha): 1.0
- herbicidal rating CASOB (CASOB (Sicklepod); rate 0.0630 kg/ha): 3.0
- GLXMAW rating ([4]; 0.0313 kg/ha): 1.5
- GLXMAW rating ([4]; 0.0625 kg/ha): 2.0
- GLXMAW rating ([4]; 0.1250 kg/ha): 3.5
- GLXMAW rating ([4]; 0.2500 kg/ha): 5.0
- Preemergence herbicidal rating GLXMAW ([4]; rate 0.0156 kg/ha): 1.0
- SETVI rating (SETVI (Foxtail, Green); 0.0313 kg/ha): 0.5
- SETVI rating (SETVI (Foxtail, Green); 0.0625 kg/ha): 4.5
- SETVI rating (SETVI (Foxtail, Green); 0.1250 kg/ha): 9.0
- SETVI rating (SETVI (Foxtail, Green); 0.2500 kg/ha): 9.0
- Preemergence herbicidal rating SETVI (SETVI (Foxtail, Green); rate 0.0156 kg/ha): 0.0

Compound: COCCOC(=O)CN1C(=O)CSC1=Nc1cc(-n2c(=O)cc(C(F)(F)F)n(C)c2=O)c(F)cc1Cl [Compound 107, 2-Methoxyethyl 2-{{2-chloro-5-[3,6-dihydro-3-methyl-2,6-dioxo-4-(trifluoromethyl)-1(2H)-pyrimidinyl]-4-fluorophenyl}imino}-4-oxo-3-thiazolidineacetate]
- MOOVA herbicidal effect rating (MOOVA (Monochoria); 0.0313 kg/ha): 4.0
- MOOVA herbicidal effect rating (MOOVA (Monochoria); 0.0625 kg/ha): 6.0
- MOOVA herbicidal effect rating (MOOVA (Monochoria); 0.1250 kg/ha): 7.0
- MOOVA herbicidal effect rating (MOOVA (Monochoria); 0.2500 kg/ha): 9.0
- herbicidal rating CHEAL ([1]; rate 0.0158 kg/ha): 2.0
- herbicidal rating CHEAL ([1]; rate 0.0315 kg/ha): 2.0
- herbicidal rating CHEAL ([1]; rate 0.0630 kg/ha): 1.0
- herbicidal rating GALAP (GALAP (Galium); rate 0.0158 kg/ha): 0.0
- herbicidal rating GALAP (GALAP (Galium); rate 0.0315 kg/ha): 0.0
- herbicidal rating GALAP (GALAP (Galium); rate 0.0630 kg/ha): 0.0
- CYPSE herbicidal effect rating (CYPSE (Flatsedge); 0.0313 kg/ha): 0.0
- CYPSE herbicidal effect rating (CYPSE (Flatsedge); 0.0625 kg/ha): 0.0
- CYPSE herbicidal effect rating (CYPSE (Flatsedge); 0.1250 kg/ha): 0.0
- herbicidal rating ZEAMX (ZEAMX (Corn, Field); rate 0.0158 kg/ha): 4.0
- herbicidal rating ZEAMX (ZEAMX (Corn, Field); rate 0.0315 kg/ha): 6.0
- herbicidal rating ZEAMX (ZEAMX (Corn, Field); rate 0.0630 kg/ha): 7.0
- Preemergence herbicidal rating ORYSAT (ORYSAT (Rice, Tebonnet) [2]; rate 0.0313 kg/ha): 0.0
- Preemergence herbicidal rating ORYSAT (ORYSAT (Rice, Tebonnet) [2]; rate 0.0625 kg/ha): 0.0
- Preemergence herbicidal rating ORYSAT (ORYSAT (Rice, Tebonnet) [2]; rate 0.1250 kg/ha): 0.0
- Preemergence herbicidal rating ORYSAT (ORYSAT (Rice, Tebonnet) [2]; rate 0.2500 kg/ha): 2.0
- herbicidal rating ORYSAT (ORYSAT (Rice, Tebonnet) [3]; rate 0.0158 kg/ha): 2.0
- herbicidal rating ORYSAT (ORYSAT (Rice, Tebonnet) [3]; rate 0.0315 kg/ha): 2.0
- herbicidal rating ORYSAT (ORYSAT (Rice, Tebonnet) [3]; rate 0.0630 kg/ha): 4.5
- Preemergence herbicidal rating AMBEL (AMBEL (Ragweed, Common); rate 0.0313 kg/ha): 0.0
- Preemergence herbicidal rating AMBEL (AMBEL (Ragweed, Common); rate 0.0625 kg/ha): 0.0
- Preemergence herbicidal rating AMBEL (AMBEL (Ragweed, Common); rate 0.1250 kg/ha): 0.0
- Preemergence herbicidal rating AMBEL (AMBEL (Ragweed, Common); rate 0.2500 kg/ha): 2.0
- herbicidal rating CASOB (CASOB (Sicklepod); rate 0.0158 kg/ha): 0.0
- herbicidal rating CASOB (CASOB (Sicklepod); rate 0.0315 kg/ha): 0.0
- herbicidal rating CASOB (CASOB (Sicklepod); rate 0.0630 kg/ha): 0.0
- Preemergence herbicidal rating GLXMAW ([4]; rate 0.0313 kg/ha): 0.0
- Preemergence herbicidal rating GLXMAW ([4]; rate 0.0625 kg/ha): 1.0
- Preemergence herbicidal rating GLXMAW ([4]; rate 0.1250 kg/ha): 2.0
- Preemergence herbicidal rating GLXMAW ([4]; rate 0.2500 kg/ha): 3.0
- Preemergence herbicidal rating SETVI (SETVI (Foxtail, Green); rate 0.0313 kg/ha): 0.0
- Preemergence herbicidal rating SETVI (SETVI (Foxtail, Green); rate 0.0625 kg/ha): 1.0
- Preemergence herbicidal rating SETVI (SETVI (Foxtail, Green); rate 0.1250 kg/ha): 0.0
- Preemergence herbicidal rating SETVI (SETVI (Foxtail, Green); rate 0.2500 kg/ha): 7.0
